Active and inactive are the calls of the source. No cut-off for these calls is given here.
Tests used:
A549 [1] = test: Antiproliferative activity against human A549 cells assessed as reduction in cell viability after 72 hrs by MTT assay; type: functional, cell-based; conditions: A549, 72 h
A549 [2] = test: Inhibition of colony formation in human A549 cells measured after 7 to 10 days by crystal violet staining analysis; type: functional, cell-based; conditions: dose 5-10 µM, time 7-10 day
A549 [3] = test: Induction of apoptosis in human A549 cells measured after 24 hrs by annexin-V/PI staining based flow cytometry analysis; type: functional, cell-based; conditions: dose 5-10 µM
Cell membrane [4] = test: Induction of mitochondrial membrane potential loss in human A549 cells assessed as […] aggregates at 10 uM incubated for 24 hrs by JC-1 staining based flow cytometry analysis (reference value: 93.8%); type: cell membranes
Cell membrane [5] = test: Induction of mitochondrial membrane potential loss in human A549 cells assessed as […] aggregates incubated for 24 hrs by JC-1 staining based flow cytometry analysis; type: cell membranes; conditions: dose 5-10 µM
A549 [6] = test: Induction of apoptosis in human A549 cells assessed as caspase 9 activation at 5 to 10 uM incubated for 24 hrs by Western blot analysis; type: functional, cell-based; conditions: dose 5-10 µM
[7] = Cmax in Sprague-Dawley rat at 10 mg/kg, ip incubated for 24 hrs by LC-MS/MS analysis; type: ADME, organism-based; conditions: in vivo
[8] = AUC (0 to infinity) in Sprague-Dawley rat at 10 mg/kg, ip incubated for 24 hrs by LC-MS/MS analysis; type: ADME, organism-based; conditions: in vivo
[9] = Half life in Sprague-Dawley rat at 10 mg/kg, ip incubated for 24 hrs by LC-MS/MS analysis; type: ADME, organism-based; conditions: in vivo
[10] = Apparent volume of distribution with respect to the bioavailability in Sprague-Dawley rat at 10 mg/kg, ip incubated for 24 hrs by LC-MS/MS analysis; type: ADME, organism-based; conditions: in vivo, read-out: Vc/F
[11] = Apparent clearance in Sprague-Dawley rat at 10 mg/kg, ip incubated for 24 hrs by LC-MS/MS analysis; type: ADME, organism-based; conditions: in vivo
A549 [12] = test: Inhibition of AKT/mTORC signalling in human A549 cells assessed as decrease in p70S6K level at 5 to 10 uM measured after 24 hrs by Western blot analysis; type: cell-based; conditions: dose 5-10 µM
A549 [13] = test: Inhibition of AKT/mTORC signalling in human A549 cells assessed as decrease in AKT phosphorylation level at 5 to 10 uM measured after 24 hrs by Western blot analysis; type: cell-based; conditions: dose 5-10 µM
A549 [14] = test: Induction of autophagy in human A549 cells assessed as downregulation of AKT phosphorylation level at 5 to 10 uM measured after 24 hrs by Western blot analysis; type: functional, cell-based; conditions: dose 5-10 µM
A549 [15] = test: Induction of autophagy in human A549 cells assessed as downregulation of ERK expression at 5 to 10 uM measured after 24 hrs by Western blot analysis; type: functional, cell-based; conditions: dose 5-10 µM
A549 [16] = test: Antitumor activity against human A549 cells xenografted in BALB/c nude mouse assessed as inhibition of tumor volume at 25 to 50 mg/kg, ip measured daily for 3 weeks; type: functional, organism-based; conditions: dose 25-50 mg/kg
A549 [17] = test: Antitumor activity against human A549 cells xenografted in BALB/c nude mouse assessed as decrease in tumor weight at 25 to 50 mg/kg, ip measured daily for 3 weeks; type: functional, organism-based; conditions: dose 25-50 mg/kg
[18] = Toxicity in BALB/c nude mouse assessed as effect on lung at 25 to 50 mg/kg, ip measured after 3 weeks by H and E staining based analysis; type: organism-based; conditions: in vivo, 504 h, dose 25-50 mg/kg
[19] = Toxicity in BALB/c nude mouse assessed as effect on kidney at 25 to 50 mg/kg, ip measured after 3 weeks by H and E staining based analysis; type: organism-based; conditions: in vivo, 504 h, dose 25-50 mg/kg
[20] = molecular target: T1, Sodium-coupled neutral amino acid symporter 1 (Homo sapiens) (UniProt Q9H2H9); test: Inhibition of SNAT1 (unknown origin) overexpressed in HEK293 cells assessed as reduction in [13C]-Gln uptake preincubated for 5 mins followed by substrate addition and measured after 15 mins; type: cell-based; conditions: time 20.0 min
T1 sequence (whole entry): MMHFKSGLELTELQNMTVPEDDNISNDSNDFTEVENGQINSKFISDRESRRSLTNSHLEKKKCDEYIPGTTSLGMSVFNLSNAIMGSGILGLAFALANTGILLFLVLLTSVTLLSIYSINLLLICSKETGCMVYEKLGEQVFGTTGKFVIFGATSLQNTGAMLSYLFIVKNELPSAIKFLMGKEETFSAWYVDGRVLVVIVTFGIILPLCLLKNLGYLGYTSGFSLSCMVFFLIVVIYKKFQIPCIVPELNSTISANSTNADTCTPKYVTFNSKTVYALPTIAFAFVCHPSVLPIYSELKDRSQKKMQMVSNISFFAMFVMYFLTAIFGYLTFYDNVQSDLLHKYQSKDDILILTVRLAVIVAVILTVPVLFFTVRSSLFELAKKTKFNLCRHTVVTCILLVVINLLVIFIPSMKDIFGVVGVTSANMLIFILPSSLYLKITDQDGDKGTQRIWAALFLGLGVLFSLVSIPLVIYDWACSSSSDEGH

[21] = molecular target: Large neutral amino acids transporter small subunit 1 (Homo sapiens) (UniProt Q01650); test: Inhibition of LAT1 (unknown origin) overexpressed in human A549 cells assessed as reduction in [13C]-Gln uptake preincubated for 5 mins followed by substrate addition and measured after 15 mins; type: cell-based; conditions: time 20.0 min
Large neutral amino acids transporter small subunit 1 (Homo sapiens), sequence (Q01650 whole entry): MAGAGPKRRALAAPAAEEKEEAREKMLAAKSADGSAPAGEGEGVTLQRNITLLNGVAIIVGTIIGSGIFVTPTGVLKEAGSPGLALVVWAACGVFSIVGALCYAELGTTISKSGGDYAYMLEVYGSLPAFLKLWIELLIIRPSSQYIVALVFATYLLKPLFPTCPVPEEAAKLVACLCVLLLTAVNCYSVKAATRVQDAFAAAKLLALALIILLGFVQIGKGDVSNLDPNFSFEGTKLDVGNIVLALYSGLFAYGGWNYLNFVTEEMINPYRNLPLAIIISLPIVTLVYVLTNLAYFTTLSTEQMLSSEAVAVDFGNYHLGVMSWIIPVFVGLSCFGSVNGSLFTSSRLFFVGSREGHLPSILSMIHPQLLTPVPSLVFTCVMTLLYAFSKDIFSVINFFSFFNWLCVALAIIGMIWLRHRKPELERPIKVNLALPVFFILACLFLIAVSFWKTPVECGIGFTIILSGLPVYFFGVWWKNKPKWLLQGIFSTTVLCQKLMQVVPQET

A549 [22] = test: Inhibition of Gln uptake in human A549 cells assessed as reduction in intracellular glutamate level incubated for 24 hrs by LC-MS/MS analysis; type: functional, cell-based
A549 [23] = test: Inhibition of Gln uptake in human A549 cells assessed as reduction in fumarate level incubated for 24 hrs by LC-MS/MS analysis; type: functional, cell-based
A549 [24] = test: Inhibition of Gln uptake in human A549 cells assessed as reduction in malate level incubated for 24 hrs by LC-MS/MS analysis; type: functional, cell-based
A549 [25] = test: Inhibition of Gln uptake in human A549 cells assessed as reduction in citrate level incubated for 24 hrs by LC-MS/MS analysis; type: functional, cell-based
NSCLC [26] = test: Antiproliferative activity against human NSCLC cells cultured as H1975 organoids assessed as cell viability incubated for 96 hrs by Celltiter-glo viability assay; type: functional, cell-based
NSCLC [27] = test: Antiproliferative activity against human NSCLC cells cultured as HCC827 organoids assessed as cell viability incubated for 96 hrs by Celltiter-glo viability assay; type: functional, cell-based

| IC50 (A549 [1]) [µM] | Activity (Cell membrane [4]) [%] | Activity (Cell membrane [5]) | Cmax [7] [ng/mL] | AUC(0-inf) [8] [ng·h/mL] | half-life [9] [h] | Vd/F [10] [L/kg] | CL/F [11] [mL/min/kg] | inhibition [20] | SMILES | inhibition (A549 [2]) | Activity (A549 [3]) | Activity (A549 [6]) | inhibition (A549 [12]) | inhibition (A549 [13]) | Activity (A549 [14]) | Activity (A549 [15]) | Activity (A549 [16]) | Activity (A549 [17]) | Activity [18] | Activity [19] | further results |
| --- | --- | --- | --- | --- | --- | --- | --- | --- | --- | --- | --- | --- | --- | --- | --- | --- | --- | --- | --- | --- | --- |
| 5.83 | 60.3 | Dose-Dependent Effect | 874 | 14500 | 19.4 | 20 | 12 | inactive | CC(C)(C)c1ccc(OCC#Cc2ccccc2)c(CN(CC[C@H](N)C(=O)O)Cc2cc(C(C)(C)C)ccc2OCC#Cc2ccccc2)c1 | Dose-Dependent Effect | Dose-Dependent Effect | Active | Active | Active | Active | Active | Active | Active | Toxic | Toxic | inhibition [21]: inactive; inhibition (A549 [22]): Active; inhibition (A549 [23]): Active; inhibition (A549 [24]): Active; inhibition (A549 [25]): Active; IC50 (NSCLC [26]): 1.09 µM; IC50 (NSCLC [27]): 2.36 µM |
| 10.3 | 82.4 | Dose-Dependent Effect | 323 | 2820 | 9.41 | 49.5 | 60.5 | inactive | N[C@@H](CCN(Cc1ccccc1OCC#Cc1ccc(Cl)cc1)Cc1ccccc1OCC#Cc1ccc(Cl)cc1)C(=O)O | Dose-Dependent Effect | Dose-Dependent Effect | Active | Active | Active | Active | Active | Active | Active | Toxic | Toxic | inhibition [21]: inactive; inhibition (A549 [22]): Active; inhibition (A549 [23]): Active; inhibition (A549 [24]): Active; inhibition (A549 [25]): Active; IC50 (NSCLC [26]): 8.45 µM; IC50 (NSCLC [27]): 22.4 µM |

— ChEMBL document CHEMBL5537180, “Discovery of Novel Aminobutanoic Acid-Based ASCT2 Inhibitors for the Treatment of Non-Small-Cell Lung Cancer” (J Med Chem, 2024)
